IC50 and Ki data for 35 molecules are collected here from patent publication US5516797A, “Immunosuppressive compounds” (Vertex Pharmaceuticals, Incorporated, priority 1994, dated 1996).

Assay [1] concerns PBLs stimulated with LB human viral transformed B lymphoblastoid cells. Put plainly: MLR bioassay LB: inhibition of proliferation in mixed lymphocyte reaction. It is filed as cell-based. The settings on record: Lymphoblastoid cell, pulsed on day 6, harvested 24 h later. Here is the method:
(§1) LB and JVMhuman viraltransformed B lymphoblastoid cell lines stimulated t
(§2) proliferate in a mixed lymphocyte reaction (MLR). The compounds are
(§3) evaluated on their ability to inhibit this proliferation.
(§4) Fresh peripheral blood lymphocytes (PBLs) from LeukoPak cells or whole blood from random normal blood donors (tested HIV-negative and hepatitis negative) are isolated and separated by density centrifugation over Histopaque 1077 (Sigma Chemical Co., St. Louis, Mo.). The murine CTLL cytotoxic T cell line and the human Jurkat T cell line are from ATCC (CTLL-2 ATCC TIB214, JURKAT CLONE E6-1 ATCC TIBl52). The human allogeneic B cell lines used for activation of the fresh PBLs are EBV-transformed lymphocytes from normal healthy adult donors with two completely different HLAhaplotypes. All cell lines were routinely tested for the presence of Mycolasma contamination using the GibcoMycotect test kit and are Mycolasma-free. Culture medium consksts of RPMI 1640 (Gibco, Grand Island, N.Y.) containing penicillin (50 U/ml) and streptomycin (50 μg/ml), L-glutamine 2 mM, 2 mercaptoethanol (5×10^-5), 10% heat-inactivated FCS and 10 mM HEPES.
(§5) All chemical stocks were dissolved in DMSO.
(§6) MLR Bioassays ("LB" and "JVM")
(§7) Antigen activated proliferation of PBLs in a primary mixed lymphocyte reaction was assessed in the presence or absence of different concentrations of tested compounds and control drugs. 5×10^4 fresh PBLs were stimulated with 5×10^3 of Mitomycin C treated-allogeneic EBV-transformed β-lymphoglastoid cells, IB and JVM, in a final volume of 200 μl per well in 96-well round-bottomed plates (Mishell, B. B. and S. M. Shiigi, Selected Methods in Cellular Immunology W. H. Freeman and Co., San Francisco, Calif. (1980); Nelson, P. A. et al., Transplantation 50:286 (1990)). Cultures were pulsed on day 6, harvested 24 h later and counted as in previous section.

Assay [2] relates to human peripheral blood lymphocytes. Briefly: Mitogenesis assay PMA: inhibition of proliferation of human PBLs. The settings on record: Lymphocyte, PMA (10 ng/ml) plus ionomycin (250 ng/ml), 48 h incubation. In kind it is cell-based. On the procedure: (§8) PMA and OKT3mitogens used to stimulate proliferation of human peripheral
(§9) blood lymphocytes (PBC). Compounds are evaluated on their ability to
as §4, §5
(§10) Mitogenesis Assays ("PMA" and "OKT3")
(§11) After 48 h incubation (37° C., 5% CO2), cells were pulsed with 1 μCi of ^3 H-thymidine, harvested 24 h later with a Tom Tek cell harvester, and counted in LKB β-scintillation counter.

For assay [3], the system named is PBLs stimulated with JVM human viral transformed B lymphoblastoid cells. Put plainly: MLR bioassay JVM: inhibition of proliferation in mixed lymphocyte reaction. In kind it is cell-based. The settings on record: Lymphoblastoid cell, pulsed on day 6, harvested 24 h later. On the procedure: as §1, §2, §3, §4, §5, §6, §7
Assay [4] relates to human peripheral blood lymphocytes. Put plainly: Mitogenesis assay OKT3: inhibition of proliferation of human PBLs. It is filed as cell-based. The settings on record: Lymphocyte, OKT3 (10^-4 dilution final), 48 h incubation. Here is the method: as §8, §9, §4, §5, §10, §11
Assay [5] has as its target FK-506 binding protein (FKBP) (Homo sapiens, UniProt P62942). Put plainly: Inhibition of PPIase (rotamase) enzyme activity of FKBP (apparent Ki). It is filed as biochemical. The settings on record: substrate N-succinylAla-Ala-Pro-Phe-p-nitroanilide, chymotrypsin-coupled. The text has this: The inhibition of the PPIase (rotamase) enzyme activity of the FKBP (apparent "Ki" values) can also be measured according to the methods described by either Harding, M. W. et al., Nature 341:758-760 (1989) or Siekierka, J. J. et al., Nature 341:755-757 (1989). The cis-trans isomerization of the proline-alanine peptide bond in a model substrate, N-succinylAla-Ala-Pro-Phe-p-nitroanilide, is monitored spectrophotometrically in a coupled assay with chymotrypsin, which releases 4-nitroanilide from the trans form of the substrate. Fischer, G. et al., Nature 337:476-478 (1989). The inhibitory effect of the addition of different concentrations of inhibitor on the extent of the reaction is determined, and analysis of the change in first order rate constant as a function of inhibitor concentration yields an estimate of the apparent Ki value.

SMILES strings stand for the structures. Bounds are passed on as bounds.

Chain of FK-506 binding protein (FKBP) (P62942 whole entry): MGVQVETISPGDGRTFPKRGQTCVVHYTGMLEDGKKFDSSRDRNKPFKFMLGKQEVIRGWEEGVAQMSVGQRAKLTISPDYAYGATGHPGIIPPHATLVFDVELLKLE

With `COc1cc(C(=O)C(=O)N2CCCC[C@H]2C(=O)OCCCCC2CCCCC2)cc(OC)c1OC` [Compound 57], the IC50 (usually the concentration that gives 50% inhibition) in assay [1] is more than 10 µM; in assay [2], 4 µM; in assay [3], 8 µM; in assay [4], 4.5 µM.

Take `COc1cc(OC)c(OC)cc1/C=C/C(=O)N1CCC[C@H]1C(=O)OCc1ccccc1` [Compound 114]: the Ki in assay [5] turned out to be 25 µM.

For the molecule `COc1cc(C(=O)C(=O)N2CCCC[C@H]2C(=O)OCc2cccc(Oc3ccccc3)c2)cc(OC)c1OC` [Compound 61], the half-maximal inhibitory concentration (IC50) in assay [1] is more than 10 µM; in assay [2], 4 µM; in assay [3] it was more than 10 µM; in assay [4], 8 µM.

In the case of `O=C(OCc1ccccc1)[C@@H]1CCCCN1C(=O)/C=C/c1ccco1` [Compound 118], the Ki in assay [5] stood at 2.5 µM.

Turning to `COc1ccc(OC)c(/C=C/C(=O)N2CCC[C@H]2C(=O)OCc2ccccc2)c1` [Compound 113], the Ki in assay [5] is 10 µM.

Turning to `COc1cc(C(=O)C(=O)N2CCCC[C@H]2C(=O)OCCCn2cnc3ccccc32)cc(OC)c1OC` [Compound 106], the IC50 in assay [1] was more than 10 µM; in assay [2], 7 µM; in assay [3], more than 10 µM; in assay [4], more than 10 µM. In assay [5], the Ki amounted to 0.11 µM.

For `CC(C)Oc1cccc(C(=O)C(=O)N2CCCC[C@H]2C(=O)OCCCCc2ccccc2)c1` [Compound 76], the IC50 was 9 µM in assay [1], 5 µM in assay [2], more than 10 µM in assay [3] and 10 µM in assay [4]. In addition, in assay [5], the Ki is 0.1 µM.

Take `COc1cc(C(=O)C(=O)N2CCCC[C@H]2C(=O)OCc2ccc(I)cc2)cc(OC)c1OC` [Compound 78]: the IC50 in assay [1], in assay [2], in assay [3] and in assay [4] was more than 10 µM throughout. Further, in assay [5], the Ki turned out to be 1.4 µM.

As for `O=C(CC1CCCCC1)C(=O)N1CCCC[C@H]1C(=O)OCCCCc1ccccc1` [Compound 99], the IC50 in assay [1], in assay [2], in assay [3] and in assay [4] was more than 10 µM in each case. Further, the Ki in assay [5] turned out to be 0.12 µM.

`O=C(Cc1ccccc1)C(=O)N1CCCC[C@H]1C(=O)OCCCCc1ccccc1` [Compound 95]: the IC50 in assay [1], in assay [2], in assay [3] and in assay [4] was more than 10 µM throughout. Further, in assay [5], the Ki is 0.35 µM.

Consider `C/C(=C\c1ccc(O)cc1)COC(=O)[C@@H]1CCCCN1C(=O)C(=O)c1ccccc1` [Compound 24], for which, in assay [5], the Ki is 6 µM.

In the case of `O=C(OCCCc1ccccc1)[C@@H]1CCCCN1C(=O)C(=O)C1(F)CCCCC1` [Compound 91], the IC50 in assay [1], in assay [2], in assay [3] and in assay [4] was more than 10 µM each time. For the same molecule, the Ki in assay [5] was 0.54 µM.

As to `CC(C)(C)C(=O)C(=O)N1CCCC[C@H]1C(=O)OCCCCc1ccccc1` [Compound 104], the IC50 is more than 10 µM in assay [1], 4 µM in assay [2], more than 10 µM in assay [3] and more than 10 µM in assay [4]. Further, in assay [5], the Ki turned out to be 0.18 µM.

On to `COc1cc(C(=O)C(=O)N2CCCC[C@H]2C(=O)OCc2ccc(-c3ccccc3)cc2)cc(OC)c1OC` [Compound 59], for which, in assay [5], the Ki stood at 2 µM.

Take `COc1cc(C(=O)C(=O)N2CCCC[C@H]2C(=O)OCCCc2c[nH]c3ccccc23)cc(OC)c1OC` [Compound 84]: the 50% inhibitory concentration (IC50) was 6 µM in assay [1], 4.5 µM in assay [2], more than 10 µM in assay [3] and 6 µM in assay [4].

`O=C(OCc1ccccc1)[C@@H]1CCCCN1C(=O)/C=C/c1ccccc1` [Compound 123]: the Ki in assay [5] was 11 µM.

As to `CCC(C)C(=O)C(=O)N1CCCC[C@H]1C(=O)OCc1ccccc1` (stereo partly shown) [Compound 67], the IC50 in assay [1], in assay [2], in assay [3] and in assay [4] was more than 10 µM in each case. Besides, in assay [5], the Ki is 1 µM.

As for `COc1ccc(COCc2coc(C(=O)C(=O)N3CCCC[C@H]3C(=O)OCCCCc3ccccc3)c2)cc1` [Compound 103], the IC50 in assay [1] was 10 µM; in assay [2], 7 µM; in assay [3] it was more than 10 µM; in assay [4] it was 10 µM. Further, in assay [5], the Ki is 0.7 µM.

Consider `O=C(C(=O)N1CCCC[C@H]1C(=O)OCCc1ccccc1)c1ccccc1` [Compound 68], for which the IC50 in assay [1], in assay [2], in assay [3] and in assay [4] was more than 10 µM each time.

For the molecule `C/C(=C\[C@H]1CC[C@@H](O)CC1)COC(=O)[C@@H]1CCCCN1C(=O)C(=O)c1ccccc1` [Compound 25, (E)-3-[cis-4-(hydroxycyclohexyl)]-2-methylprop-2-enyl N-(phenylglyoxyl)-pipecolate], the IC50 in assay [1], in assay [2], in assay [3] and in assay [4] was more than 10 µM each time. In assay [5], the Ki was 0.6 µM.

For `C[C@@H](C(=O)OCc1ccccc1)N(C)C(=O)/C=C/c1ccc2c(c1)OCO2` [Compound 131], the Ki in assay [5] was determined as 50 µM.

Consider `COc1cc(C(=O)C(=O)N2CCCC[C@H]2C(=O)OCCc2ccc3ccccc3c2)cc(OC)c1OC` [Compound 79], for which the IC50 in assay [1] was more than 10 µM; in assay [2] it was 10 µM; in assay [3], more than 10 µM; in assay [4], 2.5 µM. The Ki in assay [5] came to 0.22 µM.

On to `O=C(OCc1ccccc1)[C@@H]1CCCCN1C(=O)/C=C/c1ccoc1` [Compound 119], for which the Ki in assay [5] came to 2.5 µM.

Consider `O=C(C(=O)N1CCCC[C@H]1C(=O)OCCCCc1ccccc1)c1ccccc1` [Compound 64], for which the half-maximal inhibitory concentration (IC50) in assay [1] was more than 10 µM; in assay [2], 10 µM; in assay [3], more than 10 µM; in assay [4], 6 µM.

For `C=CCOC(=O)[C@@H]1CCCCN1C(=O)C(=O)c1ccccc1` [Compound 4], the Ki in assay [5] was found to be 8 µM.

On to `O=C(C(=O)N1CCCC[C@H]1C(=O)OCc1ccc(-c2ccccc2)cc1)c1ccccc1` [Compound 58], for which, in assay [5], the Ki turned out to be 5 µM.

As for `C=CC(=O)N1CCCC[C@H]1C(=O)OCc1ccccc1` [Compound 122], the Ki in assay [5] came out at 300 µM.

Turning to `O=C(C(=O)N1CCC[C@H]1C(=O)OCc1ccccc1)c1ccccn1` [Compound 43], the Ki in assay [5] turned out to be 300 µM.

As to `O=C(C(=O)N1CCCC[C@H]1C(=O)OCc1ccccc1)c1ccccc1C(F)(F)F` [Compound 55], the Ki in assay [5] stood at 5 µM.

For `O=C(C(=O)N1CCCC[C@H]1C(=O)OCc1ccccc1)c1ccc(F)c(F)c1` [Compound 44], the Ki in assay [5] turned out to be 3 µM.

As for `C[C@H](NC(=O)/C=C/c1ccc2c(c1)OCO2)C(=O)OCc1ccccc1` [Compound 132, (S)-3-(3,4-Methylenedioxyphenyl)-prop-2-enoylalanine benzyl ester], the Ki in assay [5] stood at 60 µM.

Take `O=C(OCc1ccccc1)[C@@H]1CCCCN1C(=O)/C=C/c1cccnc1` [Compound 121]: the Ki in assay [5] was 25 µM.

In the case of `COC(=O)C(=O)N1CCCC[C@H]1C(=O)OC/C(C)=C/c1ccc(OC)c(OC)c1` [Compound 37], the Ki in assay [5] turned out to be 10 µM.

As to `O=C(C(=O)N1CCCC[C@H]1C(=O)OCCCCC1CCCCC1)c1ccccc1` [Compound 56], the IC50 in assay [1] is more than 10 µM; in assay [2], more than 10 µM; in assay [3], 6.5 µM; in assay [4], more than 10 µM.

Take `COC(=O)C(=O)N1CCCC[C@H]1C(=O)OC/C(C)=C/c1ccc(O)cc1` [Compound 38]: the Ki in assay [5] worked out at 60 µM.
